# Laboratory results published in the NIST ThermoML archive (doi:10.1021/je500513b).
# Numbers after ± are expanded uncertainties.
# Assay: mn = molality of the nth substance listed, in mol/kg
# Settings: for surface tension liquid-gas: Pendant drop shape; for electrical conductivity: 100 kPa, Liquid, Mettler Toledo inLab 710
smiles,measurement,setting,value
CCCCCCCCCCCC[N+](C)(C)CCCC[N+](C)(C)CCCCCCCCCCCC.[Br-].[Br-] + O,surface tension liquid-gas,"298.15 K, m1 = 0.0001",60.26 ± 1.8 mN/m
same,surface tension liquid-gas,"298.15 K, m1 = 0.0002",54.58 ± 0.98 mN/m
same,surface tension liquid-gas,"298.15 K, m1 = 0.0004",47.36 ± 0.75 mN/m
same,surface tension liquid-gas,"298.15 K, m1 = 0.0006",42.42 ± 0.62 mN/m
same,surface tension liquid-gas,"298.15 K, m1 = 0.0007",40.35 ± 0.53 mN/m
same,surface tension liquid-gas,"298.15 K, m1 = 0.0008",38.82 ± 0.47 mN/m
same,surface tension liquid-gas,"298.15 K, m1 = 0.00085",38.23 ± 0.61 mN/m
same,surface tension liquid-gas,"298.15 K, m1 = 0.0009",36.43 ± 0.46 mN/m
same,surface tension liquid-gas,"298.15 K, m1 = 0.001",35.92 ± 0.37 mN/m
same,surface tension liquid-gas,"298.15 K, m1 = 0.0011",35.45 ± 0.36 mN/m
same,surface tension liquid-gas,"298.15 K, m1 = 0.0012",35.19 ± 0.35 mN/m
same,surface tension liquid-gas,"298.15 K, m1 = 0.0015",35.13 ± 0.35 mN/m
same,surface tension liquid-gas,"298.15 K, m1 = 0.002",35.1 ± 0.35 mN/m
same,electrical conductivity,"298.15 K, m1 = 0.56",1.13 ± 0.01 S/m
same,electrical conductivity,"298.15 K, m1 = 0.59",1.2 ± 0.01 S/m
same,electrical conductivity,"298.15 K, m1 = 0.63",1.28 ± 0.01 S/m
same,electrical conductivity,"298.15 K, m1 = 0.67",1.36 ± 0.01 S/m
same,electrical conductivity,"298.15 K, m1 = 0.7",1.42 ± 0.02 S/m
same,electrical conductivity,"298.15 K, m1 = 0.74",1.5 ± 0.02 S/m
same,electrical conductivity,"298.15 K, m1 = 0.78",1.57 ± 0.02 S/m
same,electrical conductivity,"298.15 K, m1 = 0.83",1.66 ± 0.02 S/m
same,electrical conductivity,"298.15 K, m1 = 0.87",1.73 ± 0.02 S/m
same,electrical conductivity,"298.15 K, m1 = 0.91",1.79 ± 0.02 S/m
same,electrical conductivity,"298.15 K, m1 = 0.95",1.86 ± 0.02 S/m
same,electrical conductivity,"298.15 K, m1 = 1",1.93 ± 0.02 S/m
same,electrical conductivity,"298.15 K, m1 = 1.05",2 ± 0.02 S/m
same,electrical conductivity,"298.15 K, m1 = 1.11",2.06 ± 0.02 S/m
same,electrical conductivity,"298.15 K, m1 = 1.18",2.13 ± 0.02 S/m
same,electrical conductivity,"298.15 K, m1 = 1.25",2.2 ± 0.02 S/m
same,electrical conductivity,"298.15 K, m1 = 1.33",2.25 ± 0.02 S/m
same,electrical conductivity,"298.15 K, m1 = 1.43",2.32 ± 0.02 S/m
same,electrical conductivity,"298.15 K, m1 = 1.54",2.39 ± 0.02 S/m
same,electrical conductivity,"298.15 K, m1 = 1.67",2.46 ± 0.03 S/m
same,electrical conductivity,"298.15 K, m1 = 1.82",2.53 ± 0.03 S/m
same,electrical conductivity,"298.15 K, m1 = 2",2.63 ± 0.03 S/m
same,electrical conductivity,"303.15 K, m1 = 0.57",1.32 ± 0.01 S/m
same,electrical conductivity,"303.15 K, m1 = 0.63",1.43 ± 0.02 S/m
same,electrical conductivity,"303.15 K, m1 = 0.67",1.53 ± 0.02 S/m
same,electrical conductivity,"303.15 K, m1 = 0.7",1.61 ± 0.02 S/m
same,electrical conductivity,"303.15 K, m1 = 0.74",1.69 ± 0.02 S/m
same,electrical conductivity,"303.15 K, m1 = 0.78",1.78 ± 0.02 S/m
same,electrical conductivity,"303.15 K, m1 = 0.83",1.86 ± 0.02 S/m
same,electrical conductivity,"303.15 K, m1 = 0.87",1.93 ± 0.02 S/m
same,electrical conductivity,"303.15 K, m1 = 0.91",2.01 ± 0.02 S/m
same,electrical conductivity,"303.15 K, m1 = 0.95",2.1 ± 0.02 S/m
same,electrical conductivity,"303.15 K, m1 = 1",2.18 ± 0.02 S/m
same,electrical conductivity,"303.15 K, m1 = 1.05",2.25 ± 0.02 S/m
same,electrical conductivity,"303.15 K, m1 = 1.11",2.34 ± 0.02 S/m
same,electrical conductivity,"303.15 K, m1 = 1.18",2.41 ± 0.02 S/m
same,electrical conductivity,"303.15 K, m1 = 1.25",2.47 ± 0.03 S/m
same,electrical conductivity,"303.15 K, m1 = 1.33",2.56 ± 0.03 S/m
same,electrical conductivity,"303.15 K, m1 = 1.43",2.63 ± 0.03 S/m
same,electrical conductivity,"303.15 K, m1 = 1.54",2.72 ± 0.03 S/m
same,electrical conductivity,"303.15 K, m1 = 1.67",2.8 ± 0.03 S/m
same,electrical conductivity,"303.15 K, m1 = 1.74",2.84 ± 0.03 S/m
same,electrical conductivity,"303.15 K, m1 = 2",2.99 ± 0.03 S/m
same,electrical conductivity,"308.15 K, m1 = 0.56",1.42 ± 0.02 S/m
same,electrical conductivity,"308.15 K, m1 = 0.59",1.5 ± 0.02 S/m
same,electrical conductivity,"308.15 K, m1 = 0.63",1.59 ± 0.02 S/m
same,electrical conductivity,"308.15 K, m1 = 0.67",1.69 ± 0.02 S/m
same,electrical conductivity,"308.15 K, m1 = 0.7",1.76 ± 0.02 S/m
same,electrical conductivity,"308.15 K, m1 = 0.74",1.85 ± 0.02 S/m
same,electrical conductivity,"308.15 K, m1 = 0.78",1.95 ± 0.02 S/m
same,electrical conductivity,"308.15 K, m1 = 0.83",2.06 ± 0.02 S/m
same,electrical conductivity,"308.15 K, m1 = 0.87",2.14 ± 0.02 S/m
same,electrical conductivity,"308.15 K, m1 = 0.91",2.22 ± 0.02 S/m
same,electrical conductivity,"308.15 K, m1 = 0.95",2.32 ± 0.02 S/m
same,electrical conductivity,"308.15 K, m1 = 1",2.41 ± 0.02 S/m
same,electrical conductivity,"308.15 K, m1 = 1.05",2.51 ± 0.03 S/m
same,electrical conductivity,"308.15 K, m1 = 1.11",2.62 ± 0.03 S/m
same,electrical conductivity,"308.15 K, m1 = 1.18",2.71 ± 0.03 S/m
same,electrical conductivity,"308.15 K, m1 = 1.25",2.8 ± 0.03 S/m
same,electrical conductivity,"308.15 K, m1 = 1.33",2.9 ± 0.03 S/m
same,electrical conductivity,"308.15 K, m1 = 1.43",2.98 ± 0.03 S/m
same,electrical conductivity,"308.15 K, m1 = 1.54",3.08 ± 0.03 S/m
same,electrical conductivity,"308.15 K, m1 = 1.67",3.16 ± 0.03 S/m
same,electrical conductivity,"308.15 K, m1 = 1.82",3.27 ± 0.03 S/m
same,electrical conductivity,"308.15 K, m1 = 2",3.39 ± 0.03 S/m
same,electrical conductivity,"313.15 K, m1 = 0.62",1.66 ± 0.02 S/m
same,electrical conductivity,"313.15 K, m1 = 0.66",1.78 ± 0.02 S/m
same,electrical conductivity,"313.15 K, m1 = 0.7",1.91 ± 0.02 S/m
same,electrical conductivity,"313.15 K, m1 = 0.74",2 ± 0.02 S/m
same,electrical conductivity,"313.15 K, m1 = 0.78",2.12 ± 0.02 S/m
same,electrical conductivity,"313.15 K, m1 = 0.83",2.24 ± 0.02 S/m
same,electrical conductivity,"313.15 K, m1 = 0.89",2.38 ± 0.02 S/m
same,electrical conductivity,"313.15 K, m1 = 0.95",2.54 ± 0.03 S/m
same,electrical conductivity,"313.15 K, m1 = 1",2.64 ± 0.03 S/m
same,electrical conductivity,"313.15 K, m1 = 1.05",2.76 ± 0.03 S/m
same,electrical conductivity,"313.15 K, m1 = 1.11",2.87 ± 0.03 S/m
same,electrical conductivity,"313.15 K, m1 = 1.18",3.01 ± 0.03 S/m
same,electrical conductivity,"313.15 K, m1 = 1.25",3.13 ± 0.03 S/m
same,electrical conductivity,"313.15 K, m1 = 1.33",3.24 ± 0.03 S/m
same,electrical conductivity,"313.15 K, m1 = 1.43",3.34 ± 0.03 S/m
same,electrical conductivity,"313.15 K, m1 = 1.54",3.46 ± 0.04 S/m
same,electrical conductivity,"313.15 K, m1 = 1.67",3.58 ± 0.04 S/m
same,electrical conductivity,"313.15 K, m1 = 1.74",3.64 ± 0.04 S/m
same,electrical conductivity,"313.15 K, m1 = 1.82",3.7 ± 0.04 S/m
same,electrical conductivity,"313.15 K, m1 = 1.9",3.77 ± 0.04 S/m
same,electrical conductivity,"313.15 K, m1 = 2",3.84 ± 0.04 S/m
same,electrical conductivity,"318.15 K, m1 = 0.61",1.79 ± 0.02 S/m
same,electrical conductivity,"318.15 K, m1 = 0.65",1.91 ± 0.02 S/m
same,electrical conductivity,"318.15 K, m1 = 0.69",2.05 ± 0.02 S/m
same,electrical conductivity,"318.15 K, m1 = 0.74",2.19 ± 0.02 S/m
same,electrical conductivity,"318.15 K, m1 = 0.78",2.33 ± 0.02 S/m
same,electrical conductivity,"318.15 K, m1 = 0.83",2.45 ± 0.03 S/m
same,electrical conductivity,"318.15 K, m1 = 0.89",2.61 ± 0.03 S/m
same,electrical conductivity,"318.15 K, m1 = 0.95",2.78 ± 0.03 S/m
same,electrical conductivity,"318.15 K, m1 = 1",2.9 ± 0.03 S/m
same,electrical conductivity,"318.15 K, m1 = 1.05",3.04 ± 0.03 S/m
same,electrical conductivity,"318.15 K, m1 = 1.11",3.18 ± 0.03 S/m
same,electrical conductivity,"318.15 K, m1 = 1.18",3.33 ± 0.03 S/m
same,electrical conductivity,"318.15 K, m1 = 1.25",3.47 ± 0.04 S/m
same,electrical conductivity,"318.15 K, m1 = 1.33",3.61 ± 0.04 S/m
same,electrical conductivity,"318.15 K, m1 = 1.43",3.76 ± 0.04 S/m
same,electrical conductivity,"318.15 K, m1 = 1.54",3.91 ± 0.04 S/m
same,electrical conductivity,"318.15 K, m1 = 1.67",4.04 ± 0.04 S/m
same,electrical conductivity,"318.15 K, m1 = 1.74",4.11 ± 0.04 S/m
same,electrical conductivity,"318.15 K, m1 = 1.82",4.19 ± 0.04 S/m
same,electrical conductivity,"318.15 K, m1 = 1.9",4.26 ± 0.04 S/m
same,electrical conductivity,"318.15 K, m1 = 2",4.32 ± 0.04 S/m
same,electrical conductivity,"323.15 K, m1 = 0.57",1.86 ± 0.02 S/m
same,electrical conductivity,"323.15 K, m1 = 0.61",1.97 ± 0.02 S/m
same,electrical conductivity,"323.15 K, m1 = 0.65",2.09 ± 0.02 S/m
same,electrical conductivity,"323.15 K, m1 = 0.69",2.24 ± 0.02 S/m
same,electrical conductivity,"323.15 K, m1 = 0.74",2.4 ± 0.02 S/m
same,electrical conductivity,"323.15 K, m1 = 0.78",2.55 ± 0.03 S/m
same,electrical conductivity,"323.15 K, m1 = 0.83",2.72 ± 0.03 S/m
same,electrical conductivity,"323.15 K, m1 = 0.89",2.87 ± 0.03 S/m
same,electrical conductivity,"323.15 K, m1 = 0.95",3.03 ± 0.03 S/m
same,electrical conductivity,"323.15 K, m1 = 1",3.16 ± 0.03 S/m
same,electrical conductivity,"323.15 K, m1 = 1.05",3.31 ± 0.03 S/m
same,electrical conductivity,"323.15 K, m1 = 1.11",3.47 ± 0.04 S/m
same,electrical conductivity,"323.15 K, m1 = 1.18",3.66 ± 0.04 S/m
same,electrical conductivity,"323.15 K, m1 = 1.25",3.84 ± 0.04 S/m
same,electrical conductivity,"323.15 K, m1 = 1.33",4.03 ± 0.04 S/m
same,electrical conductivity,"323.15 K, m1 = 1.43",4.21 ± 0.04 S/m
same,electrical conductivity,"323.15 K, m1 = 1.54",4.38 ± 0.04 S/m
same,electrical conductivity,"323.15 K, m1 = 1.6",4.48 ± 0.05 S/m
same,electrical conductivity,"323.15 K, m1 = 1.67",4.57 ± 0.05 S/m
same,electrical conductivity,"323.15 K, m1 = 1.74",4.65 ± 0.05 S/m
same,electrical conductivity,"323.15 K, m1 = 1.82",4.73 ± 0.05 S/m
same,electrical conductivity,"323.15 K, m1 = 1.9",4.81 ± 0.05 S/m
same,electrical conductivity,"323.15 K, m1 = 2",4.89 ± 0.05 S/m
